Molecular target: T1, Human Polθ polymerase domain (aa1820-2590) (Homo sapiens, UniProt O75417)
T1 construct: Human Polθ polymerase domain (aa1820-2590) was expressed in E. coli; made in house; host or cells: E. coli
T1 sequence (O75417 1820-2590): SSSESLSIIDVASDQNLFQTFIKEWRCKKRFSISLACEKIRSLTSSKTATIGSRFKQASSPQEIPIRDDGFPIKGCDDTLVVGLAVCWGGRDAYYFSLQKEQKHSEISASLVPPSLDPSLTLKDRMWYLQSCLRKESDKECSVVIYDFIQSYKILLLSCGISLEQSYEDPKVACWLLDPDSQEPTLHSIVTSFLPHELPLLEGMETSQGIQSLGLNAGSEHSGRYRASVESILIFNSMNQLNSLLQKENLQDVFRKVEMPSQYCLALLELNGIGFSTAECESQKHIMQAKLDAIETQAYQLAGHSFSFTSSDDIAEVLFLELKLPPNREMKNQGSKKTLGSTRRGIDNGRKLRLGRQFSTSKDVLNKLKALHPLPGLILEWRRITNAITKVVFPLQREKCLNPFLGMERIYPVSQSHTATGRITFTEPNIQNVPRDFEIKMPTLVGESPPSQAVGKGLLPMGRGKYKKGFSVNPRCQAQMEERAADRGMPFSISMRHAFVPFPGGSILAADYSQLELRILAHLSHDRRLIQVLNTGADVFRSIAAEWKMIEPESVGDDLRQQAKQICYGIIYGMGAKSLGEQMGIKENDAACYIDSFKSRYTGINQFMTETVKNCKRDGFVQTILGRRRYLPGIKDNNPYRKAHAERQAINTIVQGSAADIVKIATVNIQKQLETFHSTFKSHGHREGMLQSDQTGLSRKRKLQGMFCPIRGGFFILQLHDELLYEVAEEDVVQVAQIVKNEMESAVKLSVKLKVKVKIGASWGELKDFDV
Assay: Polθ Polymerase Domain Kinact/KI Assay (PicoGreen)
Format: biochemical
Details: 0.8 nM Polθ, 100 nM DNA substrate, kobs vs [I] fit for 2-step covalent inhibitor
Procedure: Polθ Polymerase Domain Kinact/KI Assay
A PicoGreen assay was used to measure the Kinact and KI values of covalent compounds that inhibit the activity of Polθ in vitro.
Human Polθ polymerase domain (aa1820-2590) was expressed in E. coli, purified, aliquoted and stored at −80° C. until required. Polθ substrate was generated from a 1.2:1 mix of DNA II Short to DNA II Long to give a final concentration of […] substrate in annealing buffer (20 mM Tris pH 7.5, 50 mM NaCl). The substrate was heated in […] aliquots to 95° C. in a heating block for 5 min before the heating block switched off, the reaction left to cool to rt and stored at −20° C. until required.
Assay measurements were performed with 1× buffer comprising 25 mM Tris pH 7.5, 12.5 mM NaCl, […], 5% (v/v) glycerol, 0.01% v/v Triton x-100, 0.1 mg/ml BSA, 1 mM DTT. Test compounds were prepared by dilution in 100% DMSO to give a 12 μM intermediate stock of each (100× final top concentration). 100 nL of 23×1:1.5-fold serial dilutions and a DMSO only control were dispensed using the Tecan dispenser into Greiner 384 well black low volume plates (product code 784076). DMSO concentration was maintained at 1% of the final assay volume by back filling with DMSO.
2× Working stock of substrate (200 nM of DNA substrate and […] dNTPs) and enzyme ([…] PolΘ) were made up in assay buffer. 5 μL/well of both enzyme and substrate 2× solutions were dispensed using a Tempest dispenser (Formulatrix) into assay plates that had been pre-dispensed with compound to give a final assay concentration of 100 nM DNA substrate, […] dNTPs and 0.8 nM Polθ. To stop the reaction, […] of a solution containing 25 mM Tris-HCl pH 7.5 and 20 mM EDTA was added at […] (t=0, 2.5, 5, 7.5, 10, 12.5, 15, 20, 25, 30, 35, 40, 45, 50, 55 and 60 min) using the Tempest's time delay function. The plates were covered during the time course to prevent evaporation. After completing the assay, 5 μL of detection reagent (25 mM Tris-HCl pH 7.5 and 2.5% (v/v) PicoGreen) was dispensed into the wells using a Tempest liquid handler (Formulatrix) and plates subsequently read on the CLARIOstar Plus (BMG Labtech) using the default optical settings for fluorescein and the auto gain/focus settings.
All data analysis was carried out using GraphPad Prism V.8 (GraphPad Software Inc, San Diego, CA) Time course data for each inhibitor concentration was fitted to equation 1 to determine kobs values.^1 Any time points where the control (DMSO alone) reaction was no longer linear were excluded from the analysis. 1) Evaluation of Enzyme Inhibitors in Drug Discovery (Ch9), R. A Copeland, Wiley, 2nd Edition 2013.
A secondary plot of kobs vs [I] is used to determine the Kinact and KI parameters (for a 2-step covalent inhibitor) by fitting to equation 2.^1

| Compound | Kinact/Kl [M⁻¹ s⁻¹] |
| --- | --- |
| C=C(CN(C)C)C(=O)N1CC(OCCCN2C[C@H]3CC(=O)N(c4cc(C(F)(F)F)cc(C)n4)[C@@H]3C(=O)N(C)c3cccc(C)c32)C1 [Example 77, (3aR,11aS)-5-(3-((1-(2-((dimethylamino)methyl)acryloyl)azetidin-3-yl)oxy)propyl)-6,10-dimethyl-1-(6-methyl-4-(trifluoromethyl)pyridin-2-yl)-1,3a,4,5,10,11a-hexahydro-2H-benzo[b]pyrrolo[2,3-f][1,4]diazocine-2,11(3H)-dione] | 2.55e+06 |
| C=CC(=O)N1Cc2nc(CN3C[C@H]4CC(=O)N(c5cc(C(F)(F)F)cc(C)n5)[C@@H]4C(=O)N(C)c4cccc(Cl)c43)sc2C1 [Example 280, (3aR,11aS)-5-((5-acryloyl-5,6-dihydro-4H-pyrrolo[3,4-d]thiazol-2-yl)methyl)-6-chloro-10-methyl-1-(6-methyl-4-(trifluoromethyl)pyridin-2-yl)-1,3a,4,5,10,11a-hexahydro-2H-benzo[b]pyrrolo[2,3-f][1,4]diazocine-2,11(3H)-dione] | 2.54e+06 |
| C=CC(=O)N1CC(n2cnc(CN3C[C@H]4CC(=O)N(c5cc(C(F)(F)F)cc(C)n5)[C@@H]4C(=O)N(C)c4cccc(F)c43)c2)C1 [Example 38, (3aR,11aS)-5-((1-(1-acryloylazetidin-3-yl)-1H-imidazol-4-yl)methyl)-6-fluoro-10-methyl-1-(6-methyl-4-(trifluoromethyl)pyridin-2-yl)-1,3a,4,5,10,11a-hexahydro-2H-benzo[b]pyrrolo[2,3-f][1,4]diazocine-2,11(3H)-dione] | 2.39e+06 |
| Cc1cc(C(F)(F)F)cc(N2C(=O)C[C@@H]3CN(Cc4cn5c(n4)CN(C(=O)CCl)C(C)C5)c4c(Cl)cccc4N(C)C(=O)[C@H]32)n1 (mixture of isomers) [Example 73a, (3aR,11aS)-6-chloro-5-(((R/S)-7-(2-chloroacetyl)-6-methyl-5,6,7,8-tetrahydroimidazo[1,2-a]pyrazin-2-yl)methyl)-10-methyl-1-(6-methyl-4-(trifluoromethyl)pyridin-2-yl)-1,3a,4,5,10,11a-hexahydro-2H-benzo[b]pyrrolo[2,3-f][1,4]diazocine-2,11(3H)-dione] | 39000 |
| C=C(CN(CC)CC)C(=O)N1CC(OCCCN2C[C@H]3CC(=O)N(c4cc(C(F)(F)F)cc(C)n4)[C@@H]3C(=O)N(C)c3cccc(Cl)c32)C1 [Example 166, (3aR, 11aS)-6-chloro-5-(3-((1-(2-((diethylamino)methyl)acryloyl)azetidin-3-yl)oxy)propyl)-10-methyl-1-(6-methyl-4-(trifluoromethyl)pyridin-2-yl)-1,3a,4,5,10,11a-hexahydro-2H-benzo[b]pyrrolo[2,3-f][1,4]diazocine-2,11(3H)-dione] | 3.41e+06 |
| C=CC(=O)N1CCC(n2cnc(CN3C[C@H]4CC(=O)N(c5cc(C(F)(F)F)cc(C)n5)[C@@H]4C(=O)N(C)c4cccc(F)c43)n2)CC1 [Example 126, (3aR,11aS)-5-((1-(1-acryloylpiperidin-4-yl)-1H-1,2,4-triazol-3-yl)methyl)-6-fluoro-10-methyl-1-(6-methyl-4-(trifluoromethyl)pyridin-2-yl)-1,3a,4,5,10,11a-hexahydro-2H-benzo[b]pyrrolo[2,3-f][1,4]diazocine-2,11(3H)-dione] | 460000 |
| C=CC(=O)NC12CC(CN3C[C@H]4CC(=O)N(c5cc(C(F)(F)F)cc(C)n5)[C@@H]4C(=O)N(C)c4cccc(C)c43)(C1)C2 [Example 174, N-(3-(((3aR,11aS)-6,10-dimethyl-1-(6-methyl-4-(tri-fluoromethyl)pyr-idin-2-yl)-2,11-dioxo-1,2,3,3a,4, 10,11,11a-octa-hydro-5H-benzo [b]pyrrolo[2,3-f] [1,4]diazocin-5-yl)methyl)bicyclo [1.1.1]pentan-1-yl)acrylamide] | 1.08e+06 |
| C=CC(=O)N1CC(N2CC[C@@H](CN3C[C@H]4CC(=O)N(c5cc(C(F)(F)F)cc(C)n5)[C@@H]4C(=O)N(C)c4cccc(Cl)c43)[C@@H](C#N)C2)C1 (single isomer, unassigned) [Example 227b] | 1.07e+06 |
| C=CC(=O)Nc1ccc(CN2C[C@H]3CC(=O)N(c4cc(C(F)(F)F)cc(C)n4)[C@@H]3C(=O)N(C)c3cccc(C)c32)cc1N(C)CCN(C)C [Example 91, N-(4-(((3aR,11aS)-6,10-dimethyl-1-(6-methyl-4-(trifluoromethyl)pyridin-2-yl)-2,11-dioxo-1,2,3,3a,4,10,11,11a-octahydro-5H-benzo[b]pyrrolo[2,3-f][1,4]diazocin-5-yl)methyl)-2-((2-(dimethylamino)ethyl)(methyl)amino)phenyl)acrylamide] | 4.38e+06 |
| C=CC(=O)N1C[C@H]2CN(CCN3C[C@H]4CC(=O)N(c5cc(C(F)(F)F)cc(C)n5)[C@@H]4C(=O)N(C)c4cccc(F)c43)CC[C@H]2C1 (single isomer, unassigned) [Example 25b] | 250000 |
| C=C(CN(C)C)C(=O)N1CC(c2cc(CN3C[C@H]4CC(=O)N(c5cc(C(F)(F)F)cc(C)n5)[C@@H]4C(=O)N(C)c4cccc(C)c43)ccc2F)C1 [Example 187, (3aR,11aS)-5-(3-(1-(2-((dimethyl-amino)methyl)-acryloyl)azetidin-3-yl)-4-fluorobenz-yl)-6,10-dimethyl-1-(6-methyl-4-(trifluoromethyl)-pyridin-2-yl)-1,3a,4,5,10,11a-hexahydro-2H-benzo[b]pyrrolo [2,3-f][1,4]diazo-cine-2,11(3H)-dione] | 1.41e+06 |
| C=CC(=O)N1CCOC[C@@H]1c1ccc(CN2C[C@H]3CC(=O)N(c4cc(C(F)(F)F)cc(C)n4)[C@@H]3C(=O)N(C)c3cccc(C)c32)cn1 (racemic) [Example 324b, (3aR,11aS)-5-((6-((S/R)-4-acryloyl-morpholin-3-yl)pyr-idin-3-yl)methyl)-6,10-dimethyl-1-(6-methyl-4-(trifluoro-methyl)pyridin-2-yl)-1,3a,4,5,10,11a-hexahydro-2H-benzo[b]pyrrolo [2,3-f][1,4]diazo-cine-2,11(3H)-dione] | 470000 |
| C=CC(=O)N1Cc2ccc(CN3C[C@H]4CC(=O)N(c5cc(C(F)(F)F)cc(C)n5)[C@@H]4C(=O)N(C)c4cccc(C)c43)nc2[C@H]1CC#N (racemic) [Example 318a, 2-((R/S)-6-acryloyl-2-(((3aR,11aS)-6,10-dimethyl-1-(6-meth-yl-4-(trifluorometh-yl)pyridin-2-yl)-2,11-dioxo-1,2,3,3a, 4,10,11,11a-octa-hydro-5H-benzo[b]pyrrolo[2,3-f][1,4]diazocin-5-yl)meth-yl)-6,7-dihydro-5H-pyrrolo[3,4-b]pyr-idin-7-yl)acetonitrile] | 1.9e+06 |

Reference: patent US20250230165A1, “HETEROCYCLIC COMPOUNDS FOR USE IN THE TREATMENT OF CANCER” (ARTIOS PHARMA LIMITED, priority 2021, published 2025)
